Data from US6525001B1, “Substituted pyrimidine and pyridine herbicides” (Mid-American Commercialization Corporation, priority 1997, dated 2003).

Assays:
Type in all cases: in vivo
[1] = test system: quackgrass (Agropyron repens); experiment: Test E pre-/postemergence/post directed; set-up: key: 0 is no effect; 100 is complete control; settings: PREEMERGENCE
Outline: (§1)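 Greenhouse pot-grown plants; compound in non-phytotoxic solvent with surfactant applied preemergence to soil within one day of planting, postemergence at two to four leaf stage (three to twenty cm), or post-directed to plant base and soil. Visual injury rated 13 to 21 days after application, 0 (none) to 100 (complete control).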

[2] = test system: green foxtail (Setaria viridis); experiment: Test E pre-/postemergence/post directed; set-up: key: 0 is no effect; 100 is complete control; settings: PREEMERGENCE
Outline: as §1

[3] = test system: arrowleaf sida (Sida rhombifolia); experiment: Test E pre-/postemergence/post directed; set-up: key: 0 is no effect; 100 is complete control; settings: PREEMERGENCE
Outline: as §1

[4] = test system: Spanishneedles (Bidens bipinnata); experiment: Test E pre-/postemergence/post directed; set-up: key: 0 is no effect; 100 is complete control; settings: PREEMERGENCE
Outline: as §1

[5] = test system: B. signalgrass; experiment: Test E pre-/postemergence/post directed; set-up: key: 0 is no effect; 100 is complete control; settings: PREEMERGENCE
Outline: as §1

[6] = test system: leafy spurge (Euphorbia esula); experiment: Test E pre-/postemergence/post directed; set-up: key: 0 is no effect; 100 is complete control; settings: PREEMERGENCE
Outline: as §1

[7] = test system: johnson grass (Sorghum halepense); experiment: Test E pre-/postemergence/post directed; set-up: key: 0 is no effect; 100 is complete control; settings: Rate 250 g/ha
Outline: as §1

[8] = test system: annual bluegrass (Poa annua); experiment: Test E pre-/postemergence/post directed; set-up: key: 0 is no effect; 100 is complete control; settings: PREEMERGENCE
Outline: as §1

[9] = test system: common chickweed (Stellaria media); experiment: Test E pre-/postemergence/post directed; set-up: key: 0 is no effect; 100 is complete control; settings: PREEMERGENCE
Outline: as §1

[10] = test system: alexandergrass (Brachiaria plantaginea); experiment: Test E pre-/postemergence/post directed; set-up: key: 0 is no effect; 100 is complete control; settings: PREEMERGENCE
Outline: as §1

[11] = test system: sandbur (Cenchrus echinatus); experiment: Test E pre-/postemergence/post directed; set-up: key: 0 is no effect; 100 is complete control; settings: PREEMERGENCE, Rate 250 g/ha
Outline: as §1

[12] = test system: Italian ryegrass (Lolium multiflorum); experiment: Test D; settings: PREEMERGENCE
[13] = test system: deadnettle (Lamium amplexicaule); experiment: Test D; settings: POSTEMERGENCE
Description: (§2) Compounds evaluated in this test were formulated in a non-phytotoxic solvent mixture which included a surfactant and applied to plants that were in the 1- to 4-leaf stage (postemergence application). A mixture of sandy loam soil and greenhouse potting mix in a 60:40 ratio was used for the postemergence test.
(§3) Plantings of these crops and weed species were adjusted to produce plants of appropriate size for the postemergence test. All plant species were grown using normal greenhouse practices. Crop and weed species include alfalfa (Medicago sativa), annual bluegrass (Poa annua), blackgrass (Alopecurus myosuroides), black nightshade (Solanum nigra), chickweed (Stellaria media), common poppy (Papaver rhoeas), deadnettle (Lamium amplexicaule), downy brome (Bromus tectorum), field violet (Viola arvensis), galium 2 (Galium aparine), green foxtail (Setaria viridis), Italian ryegrass (Lolium multiflorum), jointed goatgrass (Aegilops cylindrica), kochia (Kochia scoparia), lambsquarters (Chenopodium album), lentil (Lens culinaris), littleseed canarygrass (Phalaris minor), pea (Pisum sativum), potato (Solanum tuberosum), rape (Brassica napus), redroot pigweed (Amaranthus retroflexus), Russian thistle (Salsola kali), scentless chamomile (Matricaria inodora), sorghum (Sorghum vulgare), spring barley (Hordeum vulgare), sugar beet (Beta vulgaris), sunflower (Helianthus annuus), ivyleaf speedwell (Veronica hederaefolia), spring wheat (Triticum aestivum), winter wheat (Triticum aestivum), wild buckwheat (Polygonum convolvulus), wild mustard (Sinapis arvensis), wild oat (Avena fatua), windgrass (Apera spica-venti) and winter barley (Hordeum vulgare).
(§4) Treated plants and untreated controls were maintained in a greenhouse for approximately 21 to 28 days, after which all treated plants were compared to untreated controls and visually evaluated. Plant response ratings, summarized in Table D, are based upon a 0 to 100 scale where 0 is no effect and 100 is complete control. A dash response (−) means no test result.

[14] = test system: rape (Brassica napus); experiment: Test D; settings: POSTEMERGENCE
Description: as §2, §3, §4

How did the “Plant response rating, Quackgrass” value ([1]; Rate 32 g/ha) turn out when `Cc1cnc(-c2ccc(C(F)(F)F)cc2)nc1Cc1cccc(OC(F)(F)F)c1` [Compound 15] was run?
The value was 65.

What about the “Plant response rating, Quackgrass” value ([1]; Rate 64 g/ha) of the same molecule?
Its value is 65.

And the “Plant response rating, Quackgrass” value ([1]; Rate 125 g/ha)?
Its value is 95.

And the “Plant response rating, Quackgrass” value ([1]; Rate 250 g/ha)?
The value was 95.

What about the “Plant response rating, Green foxtail” value ([2]; Rate 32 g/ha) of the same molecule?
The value was 100.

And the “Plant response rating, Green foxtail” value ([2]; Rate 64 g/ha)?
Its value is 100.

And the “Plant response rating, Green foxtail” value ([2]; Rate 125 g/ha)?
Its value is 100.

And the “Plant response rating, Green foxtail” value ([2]; Rate 250 g/ha)?
The value was 100.

And the “Plant response rating, Arrowleaf sida” value ([3]; Rate 32 g/ha)?
Its value is 65.

What about the “Plant response rating, Arrowleaf sida” value ([3]; Rate 64 g/ha) of the same molecule?
The value was 50.

What about the “Plant response rating, Arrowleaf sida” value ([3]; Rate 125 g/ha) of the same molecule?
The value was 100.

And the “Plant response rating, Arrowleaf sida” value ([3]; Rate 250 g/ha)?
The value was 100.

And the “Plant response rating, Spanishneedles” value ([4]; Rate 250 g/ha)?
The value was 100.

What about the “Plant response rating, B. signalgrass” value ([5]; Rate 32 g/ha) of the same molecule?
Its value is 35.

And the “Plant response rating, B. signalgrass” value ([5]; Rate 64 g/ha)?
Its value is 60.

What about the “Plant response rating, B. signalgrass” value ([5]; Rate 125 g/ha) of the same molecule?
Its value is 95.

What about the “Plant response rating, B. signalgrass” value ([5]; Rate 250 g/ha) of the same molecule?
The value was 98.

What about the “Plant response rating, Leafy spurge” value ([6]; Rate 32 g/ha) of the same molecule?
The value was 35.

And the “Plant response rating, Leafy spurge” value ([6]; Rate 64 g/ha)?
The value was 65.

And the “Plant response rating, Leafy spurge” value ([6]; Rate 250 g/ha)?
Its value is 98.

What about the “Plant response rating, Johnsongrass” value ([7]; POSTEMERGENCE) of the same molecule?
The value was 100.

What about the “Plant response rating, Johnsongrass” value ([7]; PREEMERGENCE) of the same molecule?
Its value is 100.

And the “Plant response rating, A. bluegrass” value ([8]; Rate 32 g/ha)?
The value was 100.

What about the “Plant response rating, A. bluegrass” value ([8]; Rate 64 g/ha) of the same molecule?
Its value is 100.

What about the “Plant response rating, A. bluegrass” value ([8]; Rate 125 g/ha) of the same molecule?
Its value is 100.

And the “Plant response rating, A. bluegrass” value ([8]; Rate 250 g/ha)?
Its value is 100.

And the “Plant response rating, Com. chickweed” value ([9]; Rate 32 g/ha)?
Its value is 65.

And the “Plant response rating, Com. chickweed” value ([9]; Rate 64 g/ha)?
Its value is 85.

What about the “Plant response rating, Com. chickweed” value ([9]; Rate 125 g/ha) of the same molecule?
Its value is 98.

And the “Plant response rating, Com. chickweed” value ([9]; Rate 250 g/ha)?
Its value is 100.

What about the “Plant response rating, Alexandergrass” value ([10]; Rate 125 g/ha) of the same molecule?
The value was 100.

And the “Plant response rating, Alexandergrass” value ([10]; Rate 250 g/ha)?
Its value is 100.

What about the “Plant response rating, Sandbur” value [11] of the same molecule?
Its value is 100.

What does the source list for `CCc1cnc(-c2ccc(C(F)(F)F)cc2)nc1Cc1cccc(C(F)(F)F)c1` [Compound 22]?
Plant response rating, I. Ryegrass ([12]; Rate 125 g/ha): 65; Plant response rating, I. Ryegrass ([12]; Rate 250 g/ha): 75; Plant response rating, Deadnettle ([13]; Rate 62 g/ha): 50; Plant response rating, Deadnettle ([13]; Rate 125 g/ha): 90; Plant response rating, Rape ([14]; Rate 62 g/ha): 90; Plant response rating, Rape ([14]; Rate 125 g/ha): 90

What does the source list for `COc1cnc(-c2ccc(C(F)(F)F)cc2)nc1Cc1cccc(C(F)(F)F)c1` [Compound 23]?
Plant response rating, Spanishneedles ([4]; Rate 125 g/ha): 100; Plant response rating, Spanishneedles ([4]; Rate 250 g/ha): 100

With `Cc1cnc(-n2ccc(C(F)(F)F)n2)nc1Cc1cccc(OC(F)(F)F)c1` [Compound 42] as the molecule, how does the “Plant response rating, Spanishneedles” value ([4]; Rate 125 g/ha) read?
Its value is 100.

For `CCc1cnc(-n2ccc(C(F)(F)F)n2)nc1Cc1cccc(C(F)(F)F)c1` [Compound 46], which “Plant response rating, I. Ryegrass” value ([12]; Rate 31 g/ha) is on record?
Its value is 60.

What about the “Plant response rating, I. Ryegrass” value ([12]; Rate 62 g/ha) of the same molecule?
Its value is 60.
